According to patent US20200085838A1, “METHODS OF TREATING EPILEPSY AND NEURODEVELOPMENTAL DISORDERS” (Praxis Precision Medicines, Inc., priority 2017, published 2020):

Assays:
Assay type in all cases: cell-based
[1] = target: T1, human wild-type (WT) Nav1.2 (Homo sapiens, UniProt Q99250); assay: Whole-cell patch clamp of sodium currents (INa) in CHO cells transiently expressing wild-type Nav1.2; details: WT Nav1.2, CHO cells, mean±SEM
T1 construct: expressed in transfected cells; host or cells: CHO cells
T1 sequence (Q99250 whole entry): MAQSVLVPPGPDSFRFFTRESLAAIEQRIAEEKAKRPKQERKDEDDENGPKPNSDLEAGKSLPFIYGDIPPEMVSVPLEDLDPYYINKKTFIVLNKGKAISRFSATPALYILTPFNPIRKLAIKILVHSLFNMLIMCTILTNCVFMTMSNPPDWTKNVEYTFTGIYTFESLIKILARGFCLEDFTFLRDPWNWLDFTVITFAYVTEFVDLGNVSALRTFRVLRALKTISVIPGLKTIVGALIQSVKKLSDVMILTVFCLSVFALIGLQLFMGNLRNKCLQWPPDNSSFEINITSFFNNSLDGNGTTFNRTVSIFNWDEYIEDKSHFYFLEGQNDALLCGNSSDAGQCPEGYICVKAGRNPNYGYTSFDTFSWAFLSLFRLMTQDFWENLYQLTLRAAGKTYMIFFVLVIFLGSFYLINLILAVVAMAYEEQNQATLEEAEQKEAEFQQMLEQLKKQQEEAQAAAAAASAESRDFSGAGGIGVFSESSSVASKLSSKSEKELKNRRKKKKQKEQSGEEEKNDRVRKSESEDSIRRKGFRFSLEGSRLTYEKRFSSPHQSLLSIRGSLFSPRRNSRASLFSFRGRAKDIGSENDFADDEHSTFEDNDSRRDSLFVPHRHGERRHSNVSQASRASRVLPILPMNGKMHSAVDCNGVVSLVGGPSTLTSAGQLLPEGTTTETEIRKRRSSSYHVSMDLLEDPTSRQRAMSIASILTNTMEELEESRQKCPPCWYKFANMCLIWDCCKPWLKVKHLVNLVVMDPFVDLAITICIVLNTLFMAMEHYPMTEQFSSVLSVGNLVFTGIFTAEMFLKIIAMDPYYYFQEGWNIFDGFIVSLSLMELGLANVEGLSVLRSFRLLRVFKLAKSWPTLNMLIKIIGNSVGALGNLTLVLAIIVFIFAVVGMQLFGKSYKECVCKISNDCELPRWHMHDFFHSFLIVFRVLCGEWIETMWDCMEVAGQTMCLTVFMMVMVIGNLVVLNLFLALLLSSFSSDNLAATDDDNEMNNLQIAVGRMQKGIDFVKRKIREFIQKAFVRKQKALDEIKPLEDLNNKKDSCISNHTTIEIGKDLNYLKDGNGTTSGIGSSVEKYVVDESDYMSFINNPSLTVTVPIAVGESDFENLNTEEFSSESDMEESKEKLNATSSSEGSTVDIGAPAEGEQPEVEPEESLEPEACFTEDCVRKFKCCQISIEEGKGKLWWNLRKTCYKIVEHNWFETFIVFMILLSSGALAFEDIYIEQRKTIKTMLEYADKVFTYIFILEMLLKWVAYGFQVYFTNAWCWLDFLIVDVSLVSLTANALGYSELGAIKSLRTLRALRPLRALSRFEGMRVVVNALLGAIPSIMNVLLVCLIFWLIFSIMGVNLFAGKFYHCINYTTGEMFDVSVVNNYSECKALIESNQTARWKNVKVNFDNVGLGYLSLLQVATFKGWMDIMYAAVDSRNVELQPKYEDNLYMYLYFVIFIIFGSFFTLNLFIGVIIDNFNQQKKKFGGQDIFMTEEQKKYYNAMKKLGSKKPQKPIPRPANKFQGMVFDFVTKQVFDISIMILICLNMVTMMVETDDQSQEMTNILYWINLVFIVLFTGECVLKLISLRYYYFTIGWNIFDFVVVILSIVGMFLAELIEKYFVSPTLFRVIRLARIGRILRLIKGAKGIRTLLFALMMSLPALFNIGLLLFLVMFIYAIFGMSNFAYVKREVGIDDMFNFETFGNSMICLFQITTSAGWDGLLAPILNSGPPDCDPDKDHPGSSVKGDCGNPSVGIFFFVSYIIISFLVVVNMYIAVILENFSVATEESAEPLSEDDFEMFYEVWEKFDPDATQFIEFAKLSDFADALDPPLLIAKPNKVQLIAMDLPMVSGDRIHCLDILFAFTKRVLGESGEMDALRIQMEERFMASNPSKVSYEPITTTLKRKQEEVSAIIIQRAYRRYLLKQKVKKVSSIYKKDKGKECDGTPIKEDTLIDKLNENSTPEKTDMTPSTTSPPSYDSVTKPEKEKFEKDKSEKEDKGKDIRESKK

human R1882Q Nav1.2 = target: T2, human R1882Q Nav1.2 (Homo sapiens, UniProt Q99250, R1882Q); assay: Whole-cell patch clamp of sodium currents (INa) in CHO cells transiently expressing R1882Q Nav1.2; details: R1882Q Nav1.2, CHO cells, mean±SEM
T2 construct: expressed in transfected cells; host or cells: CHO cells
T2 sequence (Q99250 whole entry R1882Q): as the sequence (Q99250 whole entry) above, with R1882Q counted along it

human K905N Nav1.2 = target: T3, human K905N Nav1.2 (Homo sapiens, UniProt Q99250, K905N); assay: Whole-cell patch clamp of sodium currents (INa) in CHO cells transiently expressing K905N Nav1.2; details: K905N Nav1.2, CHO cells, mean±SEM
T3 construct: expressed in transfected cells; host or cells: CHO cells
T3 sequence (Q99250 whole entry K905N): as the sequence (Q99250 whole entry) above, with K905N counted along it

O=C1c2cc(-c3ccc(OC(F)(F)F)cc3)ccc2OCCN1Cc1ncccn1 [eleclazine, 4-(pyrimidin-2-ylmethyl)-7-(4-(trifluoromethoxy)phenyl)-3,4-dihydrobenzo[f][1,4]oxazepin-5(2H)-one]
Hill slope Late INa ([1]; late INa at 100 ms, INaL enhanced with 3 nM ATX-II): 0.94 ± 0.06 | Hill slope Peak INa ([1]; peak INa): 0.63 ± 0.07 | Hill slope Late INa (human R1882Q Nav1.2; late INa at 100 ms): 0.64 ± 0.2 | Hill slope Peak INa (human R1882Q Nav1.2; peak INa): 0.36 ± 0.14 | Hill slope Late INa (human K905N Nav1.2; late INa at 100 ms): 0.55 ± 0.06 | Hill slope Peak INa (human K905N Nav1.2; peak INa): 0.78 ± 0.2
